Results taken from patent US11691961B2, “Molecule having pesticidal utility, and compositions, and processes, related thereto” (CORTEVA AGRISCIENCE LLC, priority 2018, dated 2023).

How the values were obtained:
[1] = tested on: Sweet potato Whitefly (Bemisia tabaci, BEMITA); assay: Bioassay 2: Sweet potato Whitefly foliar spray on cotton seedlings; assay type: in vivo; details: for Bemisia tabaci Mean LC50 PPM: cotton seedlings sprayed at crawler emergence, 2-3 instar nymphs counted 7-9 days after treatment, Abbott-corrected percent control, mean of replicates; for Bemisia tabaci % (percent increase in the Mean LC50 required): relative to F1: ((LC50 - LC50 of F1)/LC50 of F1)*100
Method: (§1) F1, CE1, CE2, CE3, and CE4 (2 mg each) were each dissolved in 2 mL of acetone/methanol (1:1) solvent, forming stock solutions of 1000 ppm for each test molecule. The stock solutions were diluted 5× with 0.025% Tween® 20 in water to obtain test solutions at 200 ppm for each test molecule. Subsequent 4× dilutions, in water containing 0.025% Tween® 20 and 10% acetone/methanol (1:1), were used to generate the desired concentrations for dose responses. A minimum of 5 concentrations of each test molecule were used for each assay.
(§2) [formula] where X=No. of live aphids on solvent check plants and Y=No. of live aphids on treated plants. Bioassay 2: Sweet potato Whitefly (Bemisia tabaci, BEMITA) (“SPW”).
Test solutions of Formula One and the Comparative Examples, prepared as described above, were tested against SPW using the following procedure.
Cotton seedlings grown in 3-inch pots, pruned so that only one true leaf remained, were used as test substrate. Adult B. tabaci were allowed to colonize these plants and lay eggs for 24 hours after which all adults were removed from the plants using compressed air. Plants were monitored for egg development and, when crawler emergence was underway (>25% emergence based on visual examination using a microscope), the plants were sprayed using the test solutions and methods described above for green peach aphids (GPA). Treated plants were held in a holding room at approximately 25° C. and ambient relative humidity (RH) prior to grading. Evaluation was conducted by counting the number of developed 2-3 instar nymphs per plant under a microscope 7-9 days after treatment. Percent control was measured using Abbott's correction formula (W. S. Abbott, “A Method of Computing the Effectiveness of an Insecticide” J. Econ. Entomol. 18 (1925), pp. 265-267) as follows:
[formula] where X=No. of live nymphs on solvent check plants and Y=No. of live nymphs on treated plants. Analysis of Bioassays

[2] = tested on: Green Peach Aphid (Myzus persicae, MYZUPE); assay: Bioassay 1: Green Peach Aphid foliar spray on cabbage seedlings; assay type: in vivo; details: for Myzus persicae Mean LC50 PPM: infested cabbage seedlings sprayed until runoff, live aphids counted three days after treatment, Abbott-corrected percent control, mean of replicates; for Myzus persicae % (percent increase in the Mean LC50 required): relative to F1: ((LC50 - LC50 of F1)/LC50 of F1)*100
Method: as §1
Bioassay 1: Green Peach Aphid (Myzus persicae, MYZUPE) (“GPA”).
Test solutions of Formula One and the Comparative Examples, prepared as described above, were tested against GPA using the following procedure.
Cabbage seedlings grown in 3-inch pots, with 2-3 small (3-5 cm) true leaves, were used as test substrate. The seedlings were infested with 20-50 GPA (wingless adult and nymph stages) one day prior to chemical application. Four pots with individual seedlings were used for each treatment. A hand-held aspirator-type sprayer was used for spraying a solution to both sides of […] leaves until runoff. Reference plants (solvent check) were sprayed with the diluent only (0.025% Tween® 20 and 10% acetone/methanol (1:1) in water). Treated plants were held in a holding room for three days at approximately 25° C. and ambient relative humidity (RH) prior to grading. Evaluation was conducted by counting the number of live aphids per plant under a microscope three days after treatment. Percent control was measured using Abbott's correction formula (W. S. Abbott, “A Method of Computing the Effectiveness of an Insecticide” J. Econ. Entomol. 18 (1925), pp. 265-267) as follows:
as §2

SMILES	Bemisia tabaci Mean LC50 PPM [1] [PPM]	Myzus persicae Mean LC50 PPM [2] [PPM]	Myzus persicae % (percent increase in the Mean LC50 required) [2] [%]	Bemisia tabaci % (percent increase in the Mean LC50 required) [1] [%]
CC(C(=O)Nc1cn(-c2cccnc2)nc1Cl)S(C)(=O)=O (centres unmarked) [Molecule F1, N-(3-chloro-1-(pyridin-3-yl)-1H-pyrazol-4-yl)-2-(methylsulfonyl)propanamide]	4.87	0.07	–	–
CS(=O)(=O)CC(=O)Nc1cn(-c2cccnc2)nc1Cl [CE3, N-(3-chloro-1-(pyridin-3-yl)-1H-pyrazol-4-yl)-2-(methylsulfonyl)acetamide]	25.35	0.05	−29	–
CN(C(=O)CS(C)(=O)=O)c1cn(-c2cccnc2)nc1Cl [CE2, N-(3-chloro-1-(pyridin-3-yl)-1H-pyrazol-4-yl)-N-methyl-2-(methylsulfonyl)acetamide]	21.01	0.52	–	–
CC(C(=O)N(C)c1cn(-c2cccnc2)nc1Cl)S(C)(=O)=O (centres unmarked) [CE1, N-(3-chloro-1-(pyridin-3-yl)-1H-pyrazol-4-yl)-N-methyl-2-(methylsulfonyl)propanamide]	5.61	0.29	–	15
CC(C)(C(=O)Nc1cn(-c2cccnc2)nc1Cl)S(C)(=O)=O [CE4, N-(3-chloro-1-(pyridin-3-yl)-1H-pyrazol-4-yl)-2-methyl-2-(methylsulfonyl)propanamide]	9.72	2.17	3000	100
